Assay results from the NIST ThermoML archive (doi:10.1016/j.tca.2007.04.012).

What was measured:
[1] = excess molar enthalpy (molar enthalpy of mixing); xn = mol fraction of the nth substance listed; settings: 298.15 K, 101 kPa, Liquid, Flow calorimetry
[2] = xn = mol fraction of the nth substance listed; settings: 298.15 K, 101 kPa, Liquid, Vibrating tube method
[3] = 298.15 K; 101.33 kPa; Liquid; Vibrating tube method

OCC(F)(F)F [2,2,2-trifluoroethanol] + CO
Settings	excess molar enthalpy [kcal/mol]	mass density [kg/m3]
[1], x1 = 0.00548	-0.00519	–
[1], x1 = 0.01037	-0.00949	–
[1], x1 = 0.02045	-0.0191	–
[1], x1 = 0.02995	-0.0283	–
[1], x1 = 0.04012	-0.0376	–
[1], x1 = 0.04831	-0.0459	–
[1], x1 = 0.09938	-0.08521	–
[1], x1 = 0.1996	-0.1461	–
[1], x1 = 0.297	-0.1827	–
[1], x1 = 0.3988	-0.2023	–
[1], x1 = 0.4971	-0.2035	–
[1], x1 = 0.6027	-0.194	–
[1], x1 = 0.7098	-0.1616	–
[1], x1 = 0.8044	-0.1209	–
[1], x1 = 0.8929	-0.0647	–
[1], x1 = 0.9016	-0.0587	–
[1], x1 = 0.9113	-0.0538	–
[1], x1 = 0.9251	-0.0452	–
[1], x1 = 0.9337	-0.0388	–
[1], x1 = 0.9463	-0.0319	–
[1], x1 = 0.9602	-0.0246	–
[1], x1 = 0.9707	-0.0169	–
[1], x1 = 0.9838	-0.00875	–
[1], x1 = 0.9953	-0.0028	–
[1], x1 = 0.9987	-0.000645	–
[2], x1 = 0.00435	–	790.62
[2], x1 = 0.00909	–	795.28
[2], x1 = 0.01555	–	801.57
[2], x1 = 0.01643	–	802.43
[2], x1 = 0.06693	–	849.62
[2], x1 = 0.1862	–	949.42
[2], x1 = 0.3191	–	1045.13
[2], x1 = 0.385	–	1087.8
[2], x1 = 0.4808	–	1144.91
[2], x1 = 0.5797	–	1198.76
[2], x1 = 0.6905	–	1253.74
[2], x1 = 0.8331	–	1317.38
[2], x1 = 0.9196	–	1352.57
[2], x1 = 0.9701	–	1372.13
[2], x1 = 0.9799	–	1375.89
[2], x1 = 0.9913	–	1380.01
[2], x1 = 0.9949	–	1381.47
[2], x1 = 1	–	1383.41

OCC(F)(F)F [2,2,2-trifluoroethanol] + O
Settings	excess molar enthalpy [kcal/mol]	mass density [kg/m3]
[1], x1 = 0.00546	-0.00688	–
[1], x1 = 0.01088	-0.013	–
[1], x1 = 0.02028	-0.0219	–
[1], x1 = 0.0306	-0.0252	–
[1], x1 = 0.04018	-0.0246	–
[1], x1 = 0.04984	-0.0225	–
[1], x1 = 0.05985	-0.0196	–
[1], x1 = 0.07002	-0.0159	–
[1], x1 = 0.07952	-0.0122	–
[1], x1 = 0.08986	-0.00791	–
[1], x1 = 0.09937	-0.00335	–
[1], x1 = 0.11	0.000789	–
[1], x1 = 0.1193	0.00528	–
[1], x1 = 0.1299	0.0097	–
[1], x1 = 0.1385	0.0143	–
[1], x1 = 0.1486	0.0192	–
[1], x1 = 0.1983	0.0424	–
[1], x1 = 0.2988	0.08652	–
[1], x1 = 0.3988	0.123	–
[1], x1 = 0.4955	0.1497	–
[1], x1 = 0.5989	0.1661	–
[1], x1 = 0.7078	0.1649	–
[1], x1 = 0.8079	0.1296	–
[1], x1 = 0.898	0.073	–
[1], x1 = 0.9054	0.0679	–
[1], x1 = 0.9202	0.0573	–
[1], x1 = 0.9301	0.0499	–
[1], x1 = 0.9387	0.0447	–
[1], x1 = 0.9528	0.0344	–
[1], x1 = 0.9646	0.0249	–
[1], x1 = 0.9732	0.0189	–
[1], x1 = 0.988	0.00963	–
[1], x1 = 0.9952	0.00335	–
[2], x1 = 0.00478	–	1005.99
[2], x1 = 0.01029	–	1016.28
[2], x1 = 0.01855	–	1031.19
[2], x1 = 0.02226	–	1037.71
[2], x1 = 0.1002	–	1139.98
[2], x1 = 0.1985	–	1215.51
[2], x1 = 0.3	–	1265.59
[2], x1 = 0.3983	–	1298.93
[2], x1 = 0.4965	–	1322.87
[2], x1 = 0.5995	–	1341.54
[2], x1 = 0.7303	–	1359.16
[2], x1 = 0.839	–	1370.38
[2], x1 = 0.9062	–	1376.17
[2], x1 = 0.9696	–	1381.16
[2], x1 = 0.98	–	1381.89
[2], x1 = 0.9899	–	1382.59
[2], x1 = 0.995	–	1382.97
[2], x1 = 1	–	1383.41

CCO [ethanol]
Settings	mass density [kg/m3]
[3]	784.83

CCCO [propan-1-ol]
Settings	mass density [kg/m3]
[3]	799.3

CO [methanol]
Settings	mass density [kg/m3]
[3]	786.3

CO [methanol] + OCC(F)(F)F
Settings	mass density [kg/m3]
[2], x2 = 0	786.3
